{
  "source": "patent US8148392B2",
  "about": "“2-indolyl imidazo [4,5-d] phenanthroline derivatives and their use in the treatment of cancer” (Lorus Therapeutics Inc., priority 2005, dated 2012)",
  "key": {"[1]": {"system": "Cyclin D1", "assay": "Cyclin D1 mRNA in HT-29 tumour xenografts, RT-PCR", "assay_type": "in vivo, CD-1 female nude mice", "conditions": "HT-29 xenograft, versus vehicle", "procedure": "The ability of compound 3 to modulate expression of Cyclin D1 was determined using the HT-29 colon tumour xenograft model as described in Example 26. The expression of Cyclin D1 mRNA was analyzed by real-time polymerase chain reaction as described in Example 30. […] The results of this experiment combined with the results described for the effect of compound 3 in vivo on KLF4 and P21 expression as described in Examples 30 and 31 are shown in FIG. 20.\nCorrelation between zinc-sensitive transcription factor MTF-1 and a cell cycle regulator Cyclin D1 expression in HT-29 colon cancer xenograft tissues is shown in FIG. 30. Based on the presence of putative MTF-1-binding DNA sequences in Cyclin D1 gene promoter region (shown in FIG. 30A), expression levels of MTF-1 and Cyclin D1 in xenograft tissues were examined by RT-PCR, using tissue RNA extract.\nTo examine the effect of compound 3-mediated changes in KLF4 and Cyclin D1 expressions in vivo, the expressions of respective genes in xenograft tissues of vehicle control (Lutrol) and compound 3-treated HT-29 colon cancer cell-transplanted mice were analyzed by RT-PCR (FIG. 46). Briefly, KLF4 and Cyclin D1 gene expression in HT-29 xenograft tissues after 14 days treatment with compound 3 was measured as follows. The mice subcutaneously transplanted with HT-29 cells were treated with vehicle control (administerd i.p.) or 100 mg/kg compound 3 (administered i.p.) for 14 days (n=6 in each group). Total RNA was extracted and gene expression level was determined by RT-PCR. KLF4 and Cyclin D1 gene expressions were normalized with β-actin gene expression in the same sample. […]\nThe tumor regression efficacy of compound 3 was assessed in compound 3-treated HT-29-transplanted athymic mice (FIG. 54A), and correlated with gene expressions of MTF-1, KLF4 and Cyclin D1 in HT-29 xenograft tissues (FIG. 54B). […] The tumor size was measured during the course of treatment using calipers (FIG. 54A). […] The tumor tissues were excised, frozen immediately and stored at −80° C. until RNA extraction and gene expression was analyzed by RT-PCR (FIG. 54B). […]"}, "[2]": {"system": "human lung NCI-H460 cells", "assay": "Large-cell lung carcinoma NCI-H460 xenograft model, tumour growth", "assay_type": "in vivo, CD-1 female nude mice", "conditions": "for tumour size and weight: Lutrol (i.p.), lipid-based (i.v.) or water-based (i.p.) formulations", "procedure": "The ability of compounds of Formula I to inhibit large-cell lung tumour growth in vivo was tested by determining the efficacy of compound 3 in a xenograft model as described below. Compound 3 was tested as a lipid-based formulation having the following composition: distearoylphosphatidylethanolamine-polyethylene glycol 2000 (DSPE-PEG/5% mole) and egg phosphatidylcoline (ePC/95% mole). The formulation was prepared as follows: Stock solutions of compound 3 and lipid (ePC and DSPE-PEG) were prepared in DMF. Specific volumes of the stock solutions of compound 3 and lipid were then mixed in order to achieve a final lipid concentration of 25 mg/mL (ePC:DSPE-PEG=95:5 (mol %) and a compound 3 to total lipid ratio of 1:10 (w/w). The mixture was stirred for four hours, thoroughly dried under nitrogen and left overnight under vacuum. HEPES buffer saline (HBS 0.01 M, pH=7.4) warmed to 60° C. was then added in order to rehydrate the dried film. The solutions were vortexed, stirred for 48 hours at room temperature and sonicated for two and half hours. The formulation was then centrifuged at 1000 rpm for 5 minutes to remove any free compound 3.\nCD-1 female nude mice (6-7 weeks, 7 mice per treatment group) were injected […] with human lung NCI-H460 cells (3×10^6 cells in 0.1 ml PBS) subcutaneously. Treatment of the mice with vehicle or compound 3 was initiated 5 days post-inoculation (size of tumours=20-40 mm^3) for 7-day cycles of five days followed by a 2 day break for the duration of the experiment (35 days). Mice were treated with 80 mg/kg/d for the first week followed by 40 mg/kg/d until the end of the experiment. The size of the tumours was measured over the course of the experiment using calipers, and the weight of the tumours was measured after the animals were sacrificed.\nThe ability of compounds 3, 5, and 7 to inhibit large-cell lung carcinoma cell growth in vivo was tested in the mouse xenograft model as described in Example 27. The compounds were tested as Lutrol formulations (administered i.p.), lipid-based formulations micelles (administered i.v.), or water-based formulations (administered i.p.). The vehicle controls included Lutrol control (administered i.p.), lipid micelle control (administered i.v.), and water control (administered i.p.). Lutrol formulations contained 15% Lutrol and 10% DMSO. The composition of the lipid-based formulations and preparation of same was as described in Example 27 above."}},
  "note": "“Also recorded” adds a separate entry of the source.",
  "data": [
    {"compound": "Cc1[nH]c2ccccc2c1-c1nc2c3cccnc3c3ncccc3c2[nH]1", "note": "[Compound 3]", "values": [
      {"measurement": "Cyclin D1 expression in tumour xenografts", "setting": "[1]", "value": "consistently reduced the expression of Cyclin D1"},
      {"measurement": "Cyclin D1 expression in tumour xenografts", "setting": "[1]; listed as compound 3", "value": "decreased Cyclin D1 expression; also recorded: decrease in MTF-1 and Cyclin D1 gene expressions"},
      {"measurement": "tumour size and weight", "setting": "[2]", "value": "able to decrease the size (FIG. 16A) and weight (FIG. 16B) of tumours"},
      {"measurement": "tumour growth (size and weight)", "setting": "[2]; lipid-based formulation, 80 mg/kg/d first week then 40 mg/kg/d, 35 days", "value": "able to inhibit large-cell lung tumour growth"}
    ]},
    {"compound": "Cc1[nH]c2ccc(F)cc2c1-c1nc2c3cccnc3c3ncccc3c2[nH]1", "note": "[Compound 7]", "values": [
      {"measurement": "Cyclin D1 expression in tumour xenografts", "setting": "[1]", "value": "decreased Cyclin D1 expression"},
      {"measurement": "tumour size and weight", "setting": "[2]", "value": "able to decrease the size (FIG. 16A) and weight (FIG. 16B) of tumours"}
    ]}
  ]
}
